Test results as given in patent US20230146395A1, “Substituted Pyrimidines and Uses Thereof” (Verge Analytics, Inc., priority 2020, published 2023).

Target: T1, Full length human recombinant PIKFYVE (Homo sapiens, UniProt Q9Y2I7)
T1 construct: Full length human recombinant PIKFYVE; purchased Carna Biosciences (Kobe, Japan); host or cells: baculovirus expression system
Test: Inhibition of PIKfyve (microfluidic electrophoresis kinase assay, PI3P/PS substrate)
Assay type: biochemical
Details: 12 concentrations
How it was run: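 GST-tagged full-length human PIKFYVE (baculovirus; 2 nM) with fluorescent PI3P/PS (1 μM PI3P) and […] in pH 7.5 HEPES with Mg2+/Mn2+, 1% DMSO, 3 h at room temperature. PI(3,5)P product/substrate ratio read by microfluidic electrophoresis; 12-point % inhibition versus no-enzyme and DMSO controls.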

T1 sequence (Q9Y2I7 whole entry): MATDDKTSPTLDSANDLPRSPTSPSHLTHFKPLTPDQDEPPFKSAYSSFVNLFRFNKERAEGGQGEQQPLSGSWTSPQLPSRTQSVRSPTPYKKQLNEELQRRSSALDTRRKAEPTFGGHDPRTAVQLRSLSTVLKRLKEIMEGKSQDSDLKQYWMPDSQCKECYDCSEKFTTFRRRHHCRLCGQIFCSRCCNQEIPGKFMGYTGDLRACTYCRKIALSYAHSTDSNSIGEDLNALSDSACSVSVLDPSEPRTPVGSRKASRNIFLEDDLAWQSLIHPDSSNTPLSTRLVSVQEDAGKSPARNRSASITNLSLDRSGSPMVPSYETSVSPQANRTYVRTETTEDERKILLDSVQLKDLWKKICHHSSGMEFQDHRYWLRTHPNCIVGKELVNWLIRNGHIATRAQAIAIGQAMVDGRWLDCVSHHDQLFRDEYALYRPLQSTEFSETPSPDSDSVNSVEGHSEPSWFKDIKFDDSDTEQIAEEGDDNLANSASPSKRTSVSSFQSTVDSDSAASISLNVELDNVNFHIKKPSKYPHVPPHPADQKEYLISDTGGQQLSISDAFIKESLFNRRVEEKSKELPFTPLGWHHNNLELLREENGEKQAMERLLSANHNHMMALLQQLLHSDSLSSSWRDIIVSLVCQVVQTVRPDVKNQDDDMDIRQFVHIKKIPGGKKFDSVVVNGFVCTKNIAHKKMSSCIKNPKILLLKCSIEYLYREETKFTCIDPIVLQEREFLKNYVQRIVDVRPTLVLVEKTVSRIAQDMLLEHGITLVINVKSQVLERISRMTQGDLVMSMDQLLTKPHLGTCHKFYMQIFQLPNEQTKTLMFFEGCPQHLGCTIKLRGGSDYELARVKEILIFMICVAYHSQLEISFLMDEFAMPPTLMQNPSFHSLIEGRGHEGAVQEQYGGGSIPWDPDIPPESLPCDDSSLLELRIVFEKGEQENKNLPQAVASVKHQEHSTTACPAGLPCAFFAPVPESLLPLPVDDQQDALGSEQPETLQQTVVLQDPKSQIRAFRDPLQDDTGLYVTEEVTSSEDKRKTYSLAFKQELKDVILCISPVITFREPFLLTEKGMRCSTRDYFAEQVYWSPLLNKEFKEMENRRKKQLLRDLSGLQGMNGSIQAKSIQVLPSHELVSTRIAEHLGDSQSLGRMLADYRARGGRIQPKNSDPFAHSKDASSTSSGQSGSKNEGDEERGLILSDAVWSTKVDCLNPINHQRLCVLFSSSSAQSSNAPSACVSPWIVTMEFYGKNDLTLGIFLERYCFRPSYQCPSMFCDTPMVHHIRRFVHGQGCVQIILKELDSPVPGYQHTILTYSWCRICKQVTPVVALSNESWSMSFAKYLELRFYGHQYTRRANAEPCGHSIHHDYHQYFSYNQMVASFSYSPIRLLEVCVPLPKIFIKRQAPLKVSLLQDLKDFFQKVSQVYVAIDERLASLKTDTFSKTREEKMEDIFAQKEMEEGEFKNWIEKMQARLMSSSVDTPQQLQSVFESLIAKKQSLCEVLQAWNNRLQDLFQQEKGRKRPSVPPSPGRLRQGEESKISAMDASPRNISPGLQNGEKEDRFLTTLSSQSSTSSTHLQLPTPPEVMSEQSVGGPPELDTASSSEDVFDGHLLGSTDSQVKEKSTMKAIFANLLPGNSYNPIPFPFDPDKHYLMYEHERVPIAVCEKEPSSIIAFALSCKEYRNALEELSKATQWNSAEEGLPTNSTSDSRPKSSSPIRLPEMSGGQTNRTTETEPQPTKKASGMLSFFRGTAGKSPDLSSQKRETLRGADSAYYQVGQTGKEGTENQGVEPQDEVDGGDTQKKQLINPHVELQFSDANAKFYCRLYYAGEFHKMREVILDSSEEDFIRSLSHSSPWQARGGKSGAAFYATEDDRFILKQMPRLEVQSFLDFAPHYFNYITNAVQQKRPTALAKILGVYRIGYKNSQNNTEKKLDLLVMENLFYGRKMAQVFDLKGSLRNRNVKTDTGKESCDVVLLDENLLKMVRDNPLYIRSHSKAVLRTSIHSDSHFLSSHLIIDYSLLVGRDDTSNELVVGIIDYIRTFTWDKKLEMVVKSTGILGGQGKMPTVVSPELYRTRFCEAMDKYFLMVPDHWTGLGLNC

Compound	IC50 [nM]
Cc1c(-c2ccncc2)oc2c(N3CCOCC3)nc(-n3ccc(-c4ccccc4)n3)nc12 [Compound 181, 7-methyl-4-morpholino-2-(3-phenylpyrazol-1-yl)-6-(4-pyridyl)furo[3,2-d]pyrimidine]	59.4
Cc1cc(-c2oc3c(N4CCOCC4)nc(-n4ccc(-c5ccccc5)n4)nc3c2C)[nH]n1 [Compound 182, 7-methyl-6-(3-methyl-1H-pyrazol-5-yl)-4-morpholino-2-(3-phenylpyrazol-1-yl)furo[3,2-d]pyrimidine]	84.2
Cc1cc(-c2cc3nc(-n4cc(-c5ccccc5)cn4)nc(N4CCOCC4)c3o2)nn1CCN(C)C [Compound 183, N,N-dimethyl-2-[5-methyl-3-[4-morpholino-2-(4-phenylpyrazol-1-yl)furo[3,2-d]pyrimidin-6-yl]pyrazol-1-yl]ethanamine]	11.8
Cc1c(C(=O)NC2CC2)oc2c(N3CCOCC3)nc(-n3ccc(-c4ccccc4)n3)nc12 [Compound 184, N-cyclopropyl-7-methyl-4-morpholino-2-(3-phenylpyrazol-1-yl)furo[3,2-d]pyrimidine-6-carboxamide]	1430
Clc1cccc(-c2ccn(-c3nc(N4CCOCC4)c4oc(-c5ccccn5)cc4n3)n2)c1 [Compound 185, 2-[3-(3-chlorophenyl)pyrazol-1-yl]-4-morpholino-6-(2-pyridyl)furo[3,2-d]pyrimidine]	10.1
Brc1cccc(-c2ccn(-c3nc(N4CCOCC4)c4oc(-c5ccccn5)cc4n3)n2)c1 [Compound 186, 2-[3-(3-bromophenyl)pyrazol-1-yl]-4-morpholino-6-(2-pyridyl)furo[3,2-d]pyrimidine]	6
Cc1cccc(-c2ccn(-c3nc(N4CCOCC4)c4oc(-c5ccccn5)cc4n3)n2)n1 [Compound 187, 2-[3-(6-methyl-2-pyridyl)pyrazol-1-yl]-4-morpholino-6-(2-pyridyl)furo[3,2-d]pyrimidine]	2390
Cc1cc(-c2ccn(-c3nc(N4CCOCC4)c4oc(-c5ccccn5)cc4n3)n2)ccn1 [Compound 188, 2-[3-(2-methyl-4-pyridyl)pyrazol-1-yl]-4-morpholino-6-(2-pyridyl)furo[3,2-d]pyrimidine]	2830
Cc1cccc(-c2ccn(-c3nc(N4CCOCC4)c4oc(-c5ccn(C)n5)cc4n3)n2)c1 [Compound 189, 6-(1-methylpyrazol-3-yl)-4-morpholino-2-[3-(m-tolyl)pyrazol-1-yl]furo[3,2-d]pyrimidine]	0.8
Cn1ccc(-c2cc3nc(-n4cc(-c5ccccc5)cn4)nc(N4CCOCC4)c3o2)n1 [Compound 190, 6-(1-methylpyrazol-3-yl)-4-morpholino-2-(4-phenylpyrazol-1-yl)furo[3,2-d]pyrimidine]	12.4
Cn1ccc(-c2cc3nc(-n4ccc(-c5ccccc5)n4)nc(N4CCOCC4)c3o2)n1 [Compound 191, 6-(1-methylpyrazol-3-yl)-4-morpholino-2-(3-phenylpyrazol-1-yl)furo[3,2-d]pyrimidine]	51.9
Cn1ccc(-c2cc3nc(-n4cc(-c5cccc(Cl)c5)cn4)nc(N4CCOCC4)c3o2)n1 [Compound 192, 2-(4-(3-chlorophenyl)-1H-pyrazol-1-yl)-6-(1-methyl-1H-pyrazol-3-yl)-4-morpholinofuro[3,2-d]pyrimidine]	21.7
Cn1ccc(-c2cc3nc(-n4ccc(-c5cccc(Cl)c5)n4)nc(N4CCOCC4)c3o2)n1 [Compound 193, 2-[3-(3-chlorophenyl)pyrazol-1-yl]-6-(1-methylpyrazol-3-yl)-4-morpholino-furo[3,2-d]pyrimidine]	24.6
Cn1ccc(-c2cc3nc(-n4cc(Br)cn4)nc(N4CCOCC4)c3o2)n1 [Compound 194, 2-(4-bromopyrazol-1-yl)-6-(1-methylpyrazol-3-yl)-4-morpholino-furo[3,2-d]pyrimidine]	269
Cn1ccc(-c2cc3nc(-n4ccc(Br)n4)nc(N4CCOCC4)c3o2)n1 [Compound 195, 2-(3-bromopyrazol-1-yl)-6-(1-methylpyrazol-3-yl)-4-morpholino-furo[3,2-d]pyrimidine]	907
C=CC(=O)NCCn1nc(-c2cc3nc(-n4cc(-c5cccc(C)c5)cn4)nc(N4CCOCC4)c3o2)cc1C [Compound 196, N-[2-[5-methyl-3-[4-morpholino-2-[4-(m-tolyl)pyrazol-1-yl]furo[3,2-d]pyrimidin-6-yl]pyrazol-1-yl]ethyl]prop-2-enamide]	0.9
CC(=O)NCCn1nc(-c2cc3nc(-n4cc(-c5cccc(C)c5)cn4)nc(N4CCOCC4)c3o2)cc1C [Compound 197, N-[2-[5-methyl-3-[4-morpholino-2-[4-(m-tolyl)pyrazol-1-yl]furo[3,2-d]pyrimidin-6-yl]pyrazol-1-yl]ethyl]acetamide]	0.7
Cc1cccc(-c2cnn(-c3nc(N4CCOCC4)c4oc(-c5cc(C)n(CCNC(=O)CCl)n5)cc4n3)c2)c1 [Compound 198, 2-chloro-N-[2-[5-methyl-3-[4-morpholino-2-[4-(m-tolyl)pyrazol-1-yl]furo[3,2-d]pyrimidin-6-yl]pyrazol-1-yl]ethyl]acetamide]	0.6

Compound	IC50 [nM]
COc1cccc(-c2ccn(-c3nc(N4CCOCC4)c4oc(-c5ccccn5)cc4n3)n2)c1 [Compound 199, 2-[3-(3-methoxyphenyl)pyrazol-1-yl]-4-morpholino-6-(2-pyridyl)furo[3,2-d]pyrimidine]	36.8
Cc1cncc(-c2ccn(-c3nc(N4CCOCC4)c4oc(-c5ccccn5)cc4n3)n2)c1 [Compound 200, 2-[3-(5-methyl-3-pyridyl)pyrazol-1-yl]-4-morpholino-6-(2-pyridyl)furo[3,2-d]pyrimidine]	3080
Cc1cccc(-c2cnn(-c3nc(N4CCOCC4)c4oc(-c5ccn(C)n5)cc4n3)c2)c1 [Compound 201, 6-(1-methylpyrazol-3-yl)-4-morpholino-2-[4-(m-tolyl)pyrazol-1-yl]furo[3,2-d]pyrimidine]	0.5
Cc1cccc(-c2cnn(-c3nc(N4CCOCC4)c4oc(-c5cc(C)n(CCN6C(=O)C=CC6=O)n5)cc4n3)c2)c1 [Compound 202, 1-[2-[5-methyl-3-[4-morpholino-2-[4-(m-tolyl)pyrazol-1-yl]furo[3,2-d]pyrimidin-6-yl]pyrazol-1-yl]ethyl]pyrrole-2,5-dione]	1.4
Cc1cccc(-c2ccn(-c3nc(N4CCOCC4)c4oc(-c5nccs5)cc4n3)n2)c1 [Compound 203, 4-morpholino-2-[3-(m-tolyl)pyrazol-1-yl]-6-thiazol-2-yl-furo[3,2-d]pyrimidine]	1.9
Cc1cccc(-c2ccn(-c3nc(N4CCOCC4)c4oc(-c5cc(C)no5)cc4n3)n2)c1 [Compound 204, 6-(3-methylisoxazol-5-yl)-4-morpholino-2-(3-(m-tolyl)-1H-pyrazol-1-yl)furo[3,2-d]pyrimidine]	2.1
Cc1cccc(-c2ccn(-c3nc(N4CCOCC4)c4oc(-c5cnn(C)c5)cc4n3)n2)c1 [Compound 205, 6-(1-methylpyrazol-4-yl)-4-morpholino-2-[3-(m-tolyl)pyrazol-1-yl]furo[3,2-d]pyrimidine]	1.3
Cc1cc(-c2cc3nc(-n4ccc(-c5ccccc5)n4)nc(N4CCOCC4)c3o2)on1 [Compound 206, 6-(3-methylisoxazol-5-yl)-4-morpholino-2-(3-phenylpyrazol-1-yl)furo[3,2-d]pyrimidine]	7
c1ccc(-c2ccn(-c3nc(N4CCOCC4)c4oc(-c5nccs5)cc4n3)n2)cc1 [Compound 207, 4-morpholino-2-(3-phenylpyrazol-1-yl)-6-thiazol-2-yl-furo[3,2-d]pyrimidine]	6.6
Cn1cc(-c2cc3nc(-n4ccc(-c5ccccc5)n4)nc(N4CCOCC4)c3o2)cn1 [Compound 208, 6-(1-methylpyrazol-4-yl)-4-morpholino-2-(3-phenylpyrazol-1-yl)furo[3,2-d]pyrimidine]	8.2
c1ccc(-c2ccn(-c3nc(N4CCOCC4)c4oc(-c5cn[nH]c5)cc4n3)n2)cc1 [Compound 209, 4-morpholino-2-(3-phenylpyrazol-1-yl)-6-(1H-pyrazol-4-yl)furo[3,2-d]pyrimidine]	9.8
Cc1cccc(-c2ccn(-c3nc(N4CCOCC4)c4oc(-c5cc(C)ns5)cc4n3)n2)c1 [Compound 210, 6-(3-methylisothiazol-5-yl)-4-morpholino-2-[3-(m-tolyl)pyrazol-1-yl]furo[3,2-d]pyrimidine]	3.8
Cc1cc(-c2cc3nc(-n4ccc(-c5ccccc5)n4)nc(N4CCOCC4)c3o2)sn1 [Compound 211, 6-(3-methylisothiazol-5-yl)-4-morpholino-2-(3-phenylpyrazol-1-yl)furo[3,2-d]pyrimidine]	20.8
Cc1cccc(-c2ccn(-c3nc(N4CCOCC4)c4oc(-c5cnc(C)[nH]5)cc4n3)n2)c1 [Compound 212, 6-(2-methyl-1H-imidazol-5-yl)-4-morpholino-2-(3-(m-tolyl)-1H-pyrazol-1-yl)furo[3,2-d]pyrimidine]	2.3
Cc1ncc(-c2cc3nc(-n4ccc(-c5ccccc5)n4)nc(N4CCOCC4)c3o2)[nH]1 [Compound 213, 6-(2-methyl-1H-imidazol-5-yl)-4-morpholino-2-(3-phenylpyrazol-1-yl)furo[3,2-d]pyrimidine]	10.6
c1ccc(-c2ccn(-c3nc(N4CCOCC4)c4oc(-c5ncco5)cc4n3)n2)cc1 [Compound 214, 4-morpholino-6-oxazol-2-yl-2-(3-phenylpyrazol-1-yl)furo[3,2-d]pyrimidine]	44.1
[2H]C([2H])([2H])c1cccc(-c2cnn(-c3nc(N4CCOCC4)c4oc(-c5ccn(C)n5)cc4n3)c2)c1 [Compound 215, 6-(1-methylpyrazol-3-yl)-4-morpholino-2-[4-[3-(trideuteriomethyl)phenyl]pyrazol-1-yl]furo[3,2-d]pyrimidine]	0.2
[2H]C([2H])([2H])c1cccc(-c2ccn(-c3nc(N4CCOCC4)c4oc(-c5ccn(C)n5)cc4n3)n2)c1 [Compound 216, 6-(1-methylpyrazol-3-yl)-4-morpholino-2-[3-[3-(trideuteriomethyl)phenyl]pyrazol-1-yl]furo[3,2-d]pyrimidine]	0.8
